Measured values published in patent US20080317836A1, “Topical compositions for anti-aging skin treatment” (DISCOVERY PARTNERS LLC, priority 2007, published 2008).

Test: Stability to intense pulsed light (IPL) flashes, monitored by absorbance spectrum
Format: physicochemical
Conditions: ten pulses at maximum fluence of the flash lamp, visible spectral range
Procedure: A small study, on one subject, was conducted to see whether encapsulation of the sodium-copper-chlorophyllin within the liposome enhanced skin tanning, i.e., increased penetration and bioavailability of copper to the melanin-producing enzyme, […]. […] Three areas on the back received 1.0 MED simulated solar radiation: one area had received no treatment, one area had been pre-treated with the gel without liposome and the third area was treated with the liposome gel. An expert blinded grader scored the resulting skin tanning at 10 days after irradiation, using the Degree of Tanning scale 0 to 10 (darkest). […] Controlled dissociation of the sodium-copper-chlorophyllin complex is possible, in part because of the high stability of this complex. Normally, inorganic and organic copper salts, including copper-peptides, are not very stable with regard to binding copper. The inherent stability and lack of reactivity of sodium-copper-chlorophyllin is essential for this process to work successfully. […] Stability was monitored by measurement of the dye's full absorbance spectrum, since degradation of the dye would be detectable as changes in the absorbance spectrum.

In the case of “sodium-copper-chlorophyllin [sodium-copper-chlorphyllin]”, the “absorbance spectrum after IPL flashes” value is reported as “remained unchanged”.
